Test results reported in patent US11541050B2, “Pyrimidine derivatives for the treatment of viral infections” (JANSSEN SCIENCES IRELAND UC, priority 2011, dated 2023).

These compounds were tested against T1, human TLR7 (wild type sequence) (Homo sapiens, UniProt Q9NYK1) (assay: TLR7 cellular NFκB-luc reporter assay, wild type TLR7). Details: lowest effective concentration, wild type TLR7 (compounds 74 onward).
T1 construct: expressed in transfected cells; host or cells: HEK293
T1 sequence (Q9NYK1 27-1049): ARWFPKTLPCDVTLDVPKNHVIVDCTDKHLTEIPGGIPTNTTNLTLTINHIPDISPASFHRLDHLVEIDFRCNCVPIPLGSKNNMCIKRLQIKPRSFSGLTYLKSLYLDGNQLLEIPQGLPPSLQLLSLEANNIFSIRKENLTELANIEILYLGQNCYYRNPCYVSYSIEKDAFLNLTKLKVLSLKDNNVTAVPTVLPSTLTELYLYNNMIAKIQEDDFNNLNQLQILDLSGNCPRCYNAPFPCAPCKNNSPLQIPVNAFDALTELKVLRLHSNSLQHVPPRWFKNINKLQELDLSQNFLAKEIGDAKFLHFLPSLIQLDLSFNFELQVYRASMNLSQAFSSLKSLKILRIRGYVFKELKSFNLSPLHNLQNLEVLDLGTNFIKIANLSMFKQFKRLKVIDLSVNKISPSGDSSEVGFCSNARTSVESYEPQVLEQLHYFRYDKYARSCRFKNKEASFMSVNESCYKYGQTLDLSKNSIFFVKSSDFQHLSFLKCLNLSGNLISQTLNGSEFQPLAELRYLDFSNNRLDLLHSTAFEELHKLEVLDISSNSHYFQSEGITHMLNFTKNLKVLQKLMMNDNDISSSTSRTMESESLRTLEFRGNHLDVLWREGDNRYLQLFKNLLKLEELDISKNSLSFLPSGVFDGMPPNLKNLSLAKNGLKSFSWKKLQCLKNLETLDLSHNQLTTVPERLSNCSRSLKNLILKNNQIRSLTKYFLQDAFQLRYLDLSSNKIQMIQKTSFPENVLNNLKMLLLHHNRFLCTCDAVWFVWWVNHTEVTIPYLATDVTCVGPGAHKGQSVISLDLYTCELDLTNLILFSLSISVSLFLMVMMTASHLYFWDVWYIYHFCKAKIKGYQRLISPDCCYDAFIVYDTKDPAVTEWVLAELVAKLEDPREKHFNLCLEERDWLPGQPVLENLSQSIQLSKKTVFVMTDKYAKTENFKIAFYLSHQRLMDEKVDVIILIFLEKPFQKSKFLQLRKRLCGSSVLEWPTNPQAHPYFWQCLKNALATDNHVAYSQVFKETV
Format: cell-based
Design: unit not given here
In short: (§1)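 Luciferase signal read after 6 h compound incubation at 37 °C in HEK293 cells carrying transiently transfected TLR7 or TLR8 (wild type or LRR2-deletion) and NFκB-luc. Values are lowest effective concentrations from quadruplicate dose-response curves, effect ≥2-fold above assay SD.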

TLR 7 wt LEC | SMILES
0.021 | CCC[C@@H](CO)Nc1nc(N)ncc1OCc1ncc(C)c(OC)c1C [Compound 76]
0.449 | CCCCNc1nc(N)ncc1OCc1cccc(CO)c1 [Compound 77]
1.620 | CCCC[C@@H](CO)Nc1nc(N)ncc1OCc1cc(C)nn1C [Compound 79]
0.560 | CCCC[C@@H](CO)Nc1nc(N)ncc1OCc1cccc(C(N)=O)n1 [Compound 80]
0.101 | CCCC[C@@H](CCO)Nc1nc(N)ncc1OCc1cc(C)nn1C [Compound 81]
0.646 | CCCCNc1nc(N)ncc1OCc1c[nH]nn1 [Compound 86]
1.670 | CCCC[C@@H](CCOC(=O)NCC)Nc1nc(N)ncc1OC [Compound 89]

The compounds below were run on human TLR7 mutant sequence comprising a deletion in the second leucine-rich repeat (assay: TLR7 cellular NFκB-luc reporter assay, mutant TLR7 with deletion in the second leucine-rich repeat). Details: lowest effective concentration, TLR7 mutant with deletion in second leucine-rich repeat.
Format: cell-based
Design: unit not given here
In short: (§2)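 HEK293 cells transiently co-transfected with CMV-driven mutant TLR7 or TLR8 plasmid plus NFκB-luc reporter, cultured 48 h at 37 °C, then exposed to compound for 6 h at 37 °C, 5% CO2. Luciferase luminescence measured; dose-response curves from quadruplicates.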

SMILES | TLR7-dIRR2_LEC
CCCCNc1nc(N)ncc1OCc1ccc(C(=O)O)cc1OC [Compound 67] | 2.31
CCCCNc1nc(N)ncc1OC(C)c1ccccc1 (stereo not shown) [Compound 69] | 3.75
CCCCNc1nc(N)ncc1Oc1ccccc1 [Compound 71] | >24.59

What follows are compounds tested against T2, human TLR8 (wild type sequence) (Homo sapiens, UniProt Q9NR97) (assay: TLR8 cellular NFκB-luc reporter assay, wild type TLR8). Details: lowest effective concentration, wild type TLR8 (compounds 1-73).
T2 construct: expressed in transfected cells; host or cells: HEK293
T2 sequence (Q9NR97 27-1041): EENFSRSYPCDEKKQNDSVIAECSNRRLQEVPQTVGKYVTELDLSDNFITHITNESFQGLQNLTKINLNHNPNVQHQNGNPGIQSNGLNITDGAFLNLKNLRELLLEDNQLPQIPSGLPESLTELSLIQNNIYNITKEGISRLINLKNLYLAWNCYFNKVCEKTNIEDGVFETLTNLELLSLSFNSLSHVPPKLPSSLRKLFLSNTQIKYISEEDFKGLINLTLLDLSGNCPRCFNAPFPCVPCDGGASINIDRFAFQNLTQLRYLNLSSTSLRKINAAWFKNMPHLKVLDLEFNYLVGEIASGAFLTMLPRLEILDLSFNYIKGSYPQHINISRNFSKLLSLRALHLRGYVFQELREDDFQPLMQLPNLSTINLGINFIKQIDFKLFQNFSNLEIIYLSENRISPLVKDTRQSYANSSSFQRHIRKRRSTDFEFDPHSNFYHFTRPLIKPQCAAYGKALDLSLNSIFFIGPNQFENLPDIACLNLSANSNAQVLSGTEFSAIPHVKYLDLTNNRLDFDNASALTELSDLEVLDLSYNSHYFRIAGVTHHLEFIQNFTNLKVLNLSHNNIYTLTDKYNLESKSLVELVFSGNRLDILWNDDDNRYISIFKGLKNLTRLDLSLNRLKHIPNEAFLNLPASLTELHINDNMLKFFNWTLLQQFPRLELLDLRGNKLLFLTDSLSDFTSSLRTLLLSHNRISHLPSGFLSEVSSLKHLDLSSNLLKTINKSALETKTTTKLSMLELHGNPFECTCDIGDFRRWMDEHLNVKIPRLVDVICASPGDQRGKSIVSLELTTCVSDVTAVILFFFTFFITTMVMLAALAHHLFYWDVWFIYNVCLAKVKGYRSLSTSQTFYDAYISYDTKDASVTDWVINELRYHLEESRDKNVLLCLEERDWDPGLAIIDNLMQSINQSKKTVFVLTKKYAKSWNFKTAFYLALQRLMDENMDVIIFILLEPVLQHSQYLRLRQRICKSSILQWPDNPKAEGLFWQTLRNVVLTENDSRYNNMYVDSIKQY
Format: cell-based
Design: unit not given here
In short: as §1

SMILES | TLR8-wt_LEC
CCCCNc1nc(N)ncc1OCc1ccc(C(=O)O)cc1OC [Compound 67] | >24.59
CCCCNc1nc(N)ncc1OC(C)c1ccccc1 (stereo not shown) [Compound 69] | 6.43
CCCCNc1nc(N)ncc1Oc1ccccc1 [Compound 71] | >24.59

Same assay, conditions: lowest effective concentration, wild type TLR8 (compounds 74 onward)

TLR 8 wt LEC | SMILES
0.055 | CCC[C@@H](CO)Nc1nc(N)ncc1OCc1ncc(C)c(OC)c1C [Compound 76]
0.623 | CCCCNc1nc(N)ncc1OCc1cccc(CO)c1 [Compound 77]
0.329 | CCCC[C@@H](CO)Nc1nc(N)ncc1OCc1cc(C)nn1C [Compound 79]
0.041 | CCCC[C@@H](CO)Nc1nc(N)ncc1OCc1cccc(C(N)=O)n1 [Compound 80]
0.429 | CCCC[C@@H](CCO)Nc1nc(N)ncc1OCc1cc(C)nn1C [Compound 81]
3.750 | CCCCNc1nc(N)ncc1OCc1c[nH]nn1 [Compound 86]
6.670 | CCCC[C@@H](CCOC(=O)NCC)Nc1nc(N)ncc1OC [Compound 89]

These compounds were tested on human TLR8 mutant sequence comprising a deletion in the second leucine-rich repeat (assay: TLR8 cellular NFκB-luc reporter assay, mutant TLR8 with deletion in the second leucine-rich repeat). Details: lowest effective concentration, TLR8 mutant with deletion in second leucine-rich repeat.
Format: cell-based
Design: unit not given here
In short: as §2

SMILES | TLR8-dIRR2_LEC
CCCCNc1nc(N)ncc1OCc1ccc(C(=O)O)cc1OC [Compound 67] | >24.59
CCCCNc1nc(N)ncc1OC(C)c1ccccc1 (stereo not shown) [Compound 69] | 2.22
CCCCNc1nc(N)ncc1Oc1ccccc1 [Compound 71] | >24.59

These compounds were tested on HCV replicon in Huh-7 luc/neo cells (assay: Suppression of HCV replicon replication by conditioned media from compound-treated PBMC). Details: Hepatitis C virus, Huh-7; read-out: PBMC-HUH7_EC50.
Format: cell-based, HCV type 1 b
In short: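 Readout is firefly luciferase from an HCV genotype 1b NS3-NS5B bicistronic replicon in Huh-7 cells, measured 24 h after adding conditioned medium. That medium came from overnight culture of compound-treated PBMC (2×10^5/well, human AB serum, at least two donors). Interferon α-2a was the reference.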

SMILES | EC50
CCCCNc1nc(N)ncc1OCc1ccc(C(=O)O)cc1OC [Compound 67] | 2.43 µM
CCCCNc1nc(N)ncc1OC(C)c1ccccc1 (stereo not shown) [Compound 69] | 6.16 µM
CCCCNc1nc(N)ncc1Oc1ccccc1 [Compound 71] | 4.96 µM

The compounds below were run on interferon-stimulated responsive elements (ISRE) in HEK-ISREluc cells (assay: Activation of ISRE promoter elements by conditioned media from compound-treated PBMC). Details: conditioned media from compound-treated PBMC on HEK-ISREluc cells.
Format: cell-based, human
Design: unit not given here
Method: The potential of compounds to induce IFN-I was also evaluated by measuring the activation of interferon-stimulated responsive elements (ISRE) by conditioned media from PBMC. […] The plasmid pISRE-Luc from Clontech (ref. 631913) contains 5 copies of this ISRE element, followed by the firefly luciferase ORF. A HEK293 cell line stably transfected with pISRE-Luc (HEK-ISREluc) was established to profile of the conditioned PBMC cell culture media.
Briefly, PBMCs were prepared from buffy coats of at least two donors using a standard Ficoll centrifugation protocol. Isolated PBMCs were resuspended in RPMI medium supplemented with 10% human AB serum and 2×10^5 cells/well were dispensed into 384-well plates containing compounds (70 μL total volume). After overnight incubation, 10 μL of supernatant was transferred to 384-well plates containing 5×10^3 HEK-ISREluc cells/well in 30 μL (plated the day before). Following 24 hours of incubation, activation of the ISRE elements was measured by assaying luciferase activity using 40 μL/well Steady Lite Plus substrate (Perkin Elmer) and measured with ViewLux ultraHTS microplate imager (Perkin Elmer). The stimulating activity of each compound on the HEK-ISREluc cells was reported as LEC value, defined as the compound concentration applied to the PBMCs resulting in a luciferase activity at least two fold above the standard deviation of the assay. The LEC in turn indicates the degree of ISRE activation on transfer of a defined amount of PBMC culture medium. Recombinant interferon α-2a (Roferon-A) was used as a standard control compound.
For a given compound, the LEC value obtained from this assay were in the same range as the EC50 values obtained from the “suppression of HCV replication assay.” Thus, it is possible to compare the potential of compounds to induce IFN-I by PBMC, measured by either of the 2 assays.

SMILES | HEK-ISREluc LEC
CCC[C@@H](CO)Nc1nc(N)ncc1OCc1ncc(C)c(OC)c1C [Compound 76] | 0.008
CCCCNc1nc(N)ncc1OCc1cccc(CO)c1 [Compound 77] | 0.137
CCCC[C@@H](CO)Nc1nc(N)ncc1OCc1cc(C)nn1C [Compound 79] | 0.235
CCCC[C@@H](CO)Nc1nc(N)ncc1OCc1cccc(C(N)=O)n1 [Compound 80] | 0.027
CCCC[C@@H](CCO)Nc1nc(N)ncc1OCc1cc(C)nn1C [Compound 81] | 0.086
CCCCNc1nc(N)ncc1OCc1c[nH]nn1 [Compound 86] | 0.131
CCC[C@@H](CCO)Nc1nc(N)ncc1OCc1[nH]ccc(=O)c1OC [Compound 88] | 0.050
CCCC[C@@H](CCOC(=O)NCC)Nc1nc(N)ncc1OC [Compound 89] | 0.526
